Results on one substance are retold here after patent US7939623B2, “Composition containing flavan compound” (Toyo Shinyaku Co., Ltd., priority 2004, dated 2011).

A short description of this series: Evaluation for coagulation-precipitation of flavan compounds and proteins (peptides), Reference Example. It is filed as physicochemical. Set-up: key: +: The precipitation was remarkably observed; ±: The precipitation was slightly observed; −: Not observed. The conditions noted are these: room temperature, one week. As for the experimental part:
Then, an aqueous solution of each of the pine bark extract, the proanthocyanidin dry powder, and epigallocatechin (produced by Roche Vitamins Japan K.K.) was prepared such that a final concentration was 0.2 wt %, as a first liquid. Separately, collagen (having an average molecular weight of 300 thousands: produced by KOKEN CO., LTD), Nippi Peptide PA-100 (having an average molecular weight of 10,000: produced by Nippi, incorporated), Collagen peptide DS (having an average molecular weight of 7,000: produced by Kyowa. […] At room temperature, 1 mL of first liquid and 1 mL of second liquid were mixed. The resultant liquid mixture was allowed to stand at room temperature for one week, and it was visually observed whether or not precipitation or suspension was caused in the liquid mixture.

[1] abbreviates: second liquid: collagen average MW 300,000.
[2] abbreviates: second liquid: collagen peptide average MW 1,000.
Where [3] appears, read: second liquid: collagen peptide average MW 3,000.
Where [4] appears, read: second liquid: collagen peptide average MW 5,000.
Setting [5] is: second liquid: collagen peptide average MW 7,000.
The mark [6] stands for this setting: second liquid: collagen peptide average MW 10,000.

For Epigallocatechin gallate, the Precipitation result is, setting by setting: (0.2 wt % first liquid 1 mL + 1 mL 10.0 wt % second liquid: glycine (MW 75), visual) “−”; under setting [1], “+”; under setting [2], “−”; under setting [3], “−”; under setting [4], “−”; under setting [5], “−”. The Precipitation result under setting [6] is “±”. In addition, the Suspension entry is recorded as “+” under setting [1]; “−” under setting [2]; “−” under setting [3]; “−” under setting [4]; “−” under setting [5]; “+” under setting [6]. The Suspension result (second liquid: glycine (MW 75)) is given as “−”.
